Results on 15 compounds are retold here after patent US10370343B2, “[6,6] Fused bicyclic HDAC8 inhibitors” (FORMA Therapeutics, Inc., priority 2015, dated 2019).

Each structure is given as a SMILES string.

The target of this assay is T1, Full length human recombinant HDAC8 protein (Homo sapiens, UniProt Q9BY41).
T1 construct: Full length human recombinant HDAC8 protein was expressed in baculoviral system; made in house
T1 sequence (Q9BY41 1-377): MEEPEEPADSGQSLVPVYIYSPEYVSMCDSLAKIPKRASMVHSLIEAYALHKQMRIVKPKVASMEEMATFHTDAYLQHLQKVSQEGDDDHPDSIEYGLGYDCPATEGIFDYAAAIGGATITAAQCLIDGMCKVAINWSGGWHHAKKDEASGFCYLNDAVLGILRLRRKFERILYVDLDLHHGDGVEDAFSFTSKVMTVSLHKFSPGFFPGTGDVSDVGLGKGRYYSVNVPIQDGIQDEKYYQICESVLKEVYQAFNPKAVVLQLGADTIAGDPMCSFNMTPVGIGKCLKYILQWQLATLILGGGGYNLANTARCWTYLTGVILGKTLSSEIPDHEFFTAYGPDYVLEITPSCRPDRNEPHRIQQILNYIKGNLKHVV
Briefly: In vitro histone deacetylase assay: enzymatic HDAC8 electrophoretic mobility shift assay. Type of assay: biochemical. The following applies: electrophoretic mobility shift assay; enzyme 1 nM; 2 μM fluorescently labeled peptide substrate RHKK(Ac)-NH2; 25° C.; 12 concentrations; read-out: HDAC8 IC50. On the procedure:
The enzymatic HDAC8 assay was performed using electrophoretic mobility shift assay. Full length human recombinant HDAC8 protein was expressed in baculoviral system and purified by affinity chromatography. The enzymatic reactions were assembled in 384 well plates in a total volume of 25 μL in a reaction buffer composing: 100 mM HEPES, pH7.5, 25 mM KCl, 0.1% bovine serum albumin, 0.01% Triton X-100, 1% DMSO (from compounds) 2 μM of the fluorescently labeled peptide substrate and enzyme. The enzyme was added at a final concentration of 1 nM. The peptide substrate RHKK(Ac)—NH2 was used. The compounds were tested at 12 concentrations spaced by 3× dilution intervals. Negative control samples (0%-inhibition in the absence of inhibitor) and positive control samples (100%-inhibition) were assembled in replicates of four in each assay plate. The reactions were incubated at 25° C. and quenched by the addition of 45 μL of termination buffer (100 mM HEPES, pH 7.5, 0.01% Triton X-100, 0.05% SDS).
The terminated assay plates were analyzed on LabChip® 3000 microfluidic electrophoresis instrument (Perkin Elmer/Caliper Life Sciences). The fluorescence intensity of the electrophoretically separated de-acetylated product and substrate peptide was measured. Activity in each sample was determined as the product to sum ratio (PSR): P/(S+P), where P is the peak height of the product peptide and S is the peak height of the substrate peptide. Percent inhibition (Pinh) is determined using the following equation: Pinh=(PSR0%−PSRinh)/(PSR0%−PSR100%)*100, where PSRinh is the product sum ratio in the presence of inhibitor, PSR0% is the average product sum ration in the absence of inhibitor and PSR100% is the average product sum ratio in 100%-inhibition control samples. The IC50 values of inhibitors were determined by fitting the %-inhibition curves with 4 parameter dose-response model using XLfit 4 software.
Background: In EMSA bound probe runs differently from free probe, usually more slowly.
Turning to `O=C(NO)c1ccc2c(c1)N(Cc1ccccc1OC(F)(F)F)C(=O)CO2` [Compound I-66, N-hydroxy-3-oxo-4-(2-(trifluoromethoxy)benzyl)-3,4-dihydro-2H-benzo[b][1,4]oxazine-6-carboxamide], the IC50 fell in the range of 100 to 1000 nM.

As for `CC(c1ccccc1)N1C(=O)COc2ccc(C(=O)NO)cc21` (stereo not drawn) [Compound I-67, N-hydroxy-3-oxo-4-(1-phenylethyl)-3,4-dihydro-2H-benzo[b][1,4]oxazine-6-carboxamide], the IC50 fell in the range of 25 to 100 nM. On to `O=C(NO)c1ccc2c(c1)N(Cc1ccccc1F)C(=O)CO2` [Compound I-69, 4-(2-fluorobenzyl)-N-hydroxy-3-oxo-3,4-dihydro-2H-benzo[b][1,4]oxazine-6-carboxamide], for which the IC50 was less than 25 nM. For `CC(C)(C)c1ccc(CN2C(=O)COc3ccc(C(=O)NO)cc32)cc1` [Compound I-70, 4-(4-(tert-butyl)benzyl)-N-hydroxy-3-oxo-3,4-dihydro-2H-benzo[b][1,4]oxazine-6-carboxamide], the IC50 was less than 25 nM. In the case of `O=C(NO)c1ccc2c(c1)N(Cc1ccc(F)c(F)c1)C(=O)CO2` [Compound I-71, 4-(3,4-difluorobenzyl)-N-hydroxy-3-oxo-3,4-dihydro-2H-benzo[b][1,4]oxazine-6-carboxamide] it was less than 25 nM; in that of `Cc1ccc(C(F)(F)F)cc1CN1C(=O)COc2ccc(C(=O)NO)cc21` [Compound I-72, N-hydroxy-4-(2-methyl-5-(trifluoromethyl)benzyl)-3-oxo-3,4-dihydro-2H-benzo[b][1,4]oxazine-6-carboxamide], less than 25 nM; in that of `O=C(NO)c1ccc2c(c1)N(Cc1cc(C(F)(F)F)ccc1F)C(=O)CO2` [Compound I-73, 4-(2-fluoro-5-(trifluoromethyl)benzyl)-N-hydroxy-3-oxo-3,4-dihydro-2H-benzo[b][1,4]oxazine-6-carboxamide], less than 25 nM. As for `O=C(NO)c1ccc2c(c1)N(Cc1cccc(-c3ccccc3)c1)C(=O)CO2` [Compound I-75, 4-([1,1′-biphenyl]-3-ylmethyl)-N-hydroxy-3-oxo-3,4-dihydro-2H-benzo[b][1,4]oxazine-6-carboxamide], the IC50 was less than 25 nM. Regarding `CCCCCN1CCOc2ccc(C(=O)NO)cc21` [Compound I-78, N-hydroxy-4-pentyl-3,4-dihydro-2H-benzo[b][1,4]oxazine-6-carboxamide], the IC50 was 25 to 100 nM. In the case of `O=C(NO)c1ccc2c(c1)N(Cc1ccc(C(F)(F)F)cc1)CCS2(=O)=O` [Compound I-79, N-hydroxy-4-(4-(trifluoromethyl)benzyl)-3,4-dihydro-2H-benzo[b][1,4]thiazine-6-carboxamide 1,1-dioxide], the IC50 is less than 25 nM. To `COc1ccc(CN2CCS(=O)(=O)c3cc(C(=O)NO)ccc32)cc1` [Compound I-80, N-hydroxy-4-(4-methoxybenzyl)-3,4-dihydro-2H-benzo[b][1,4]thiazine-7-carboxamide-1,1-dioxide] belongs 100 to 1000 nM. Take `O=C(NO)c1ccc2c(c1)N(Cc1cccc(C(F)(F)F)c1)CCS2(=O)=O` [Compound I-81, N-hydroxy-4-(3-(trifluoromethyl)benzyl)-3,4-dihydro-2H-benzo[b][1,4]thiazine-6-carboxamide-1,1-dioxide]: the half-inhibitory concentration (IC50) was less than 25 nM. For `CC1CN(Cc2ccccc2)c2cc(C(=O)NO)ccc2O1` (stereo not drawn) [Compound I-83, 4-benzyl-N-hydroxy-2-methyl-3,4-dihydro-2H-benzo[b][1,4]oxazine-6-carboxamide], the IC50 was in the range of 100 to 1000 nM. For `COc1ccc(CN2CC(C)Oc3ccc(C(=O)NO)cc32)cc1` (stereo not drawn) [Compound I-84, N-hydroxy-4-(4-methoxybenzyl)-2-methyl-3,4-dihydro-2H-benzo[b][1,4]oxazine-6-carboxamide], the IC50 is 25 to 100 nM. Take `CC1CN(Cc2ccc(S(C)(=O)=O)cc2)c2cc(C(=O)NO)ccc2O1` (stereo not drawn) [Compound I-85, N-hydroxy-2-methyl-4-(4-(methylsulfonyl)benzyl)-3,4-dihydro-2H-benzo[b][1,4]oxazine-6-carboxamide]: the IC50 was 100 to 1000 nM.

In general, IC50 refers to the concentration that inhibits the measured activity by half.
